Here are results for 10 compounds from US11730746B2, “17beta-heterocyclyl-digitalis like compounds for the treatment of heart failure” (priority 2018, dated 2023).

Data set [1] concerns the target T1, dog renal Na,K-ATPase (Canis lupus familiaris, UniProt P50997).
T1 construct: incubated with 0.3 μg of purified dog kidney enzyme; from tissue; host or cells: dog kidney outer medulla
Briefly: Inhibition of dog renal Na,K-ATPase activity (32P-ATP release). It is filed as biochemical. Here is the method: Kidneys were sliced and the outer medulla was dissected, pooled and suspended (1 g/10 ml) in a sucrose-histidine solution, containing 250 mM sucrose, 30 mM histidine and 5 mM EDTA, pH 7.2 and homogenized. […] The pellet was suspended in the sucrose-histidine buffer and incubated for 20 min with a sodium-dodecyl-sulphate (SDS) solution dissolved in a gradient buffer, containing 25 mM imidazole and 1 mM EDTA, pH 7.5. […] The pellet was suspended in the gradient buffer.
Increasing concentrations of the standard ouabain, or tested compound, were incubated with 0.3 μg of purified dog kidney enzyme for 10 min at 37° C. in 120 μl final volume of a medium, containing 140 mM NaCl, 3 mM MgCl2, 50 mM Hepes-Tris, 3 mM ATP, pH 7.5. […] The inhibitory activity was expressed as percent of the control samples carried out in the absence of ouabain or tested compound.

Data set [2] deals with T2, SERCA2a (Canis lupus familiaris, UniProt O46674).
T2 construct: pre-incubated with 2 μg of microsomes; from tissue; host or cells: dog heart left ventricle, SR microsomes
T2 sequence (O46674 whole entry): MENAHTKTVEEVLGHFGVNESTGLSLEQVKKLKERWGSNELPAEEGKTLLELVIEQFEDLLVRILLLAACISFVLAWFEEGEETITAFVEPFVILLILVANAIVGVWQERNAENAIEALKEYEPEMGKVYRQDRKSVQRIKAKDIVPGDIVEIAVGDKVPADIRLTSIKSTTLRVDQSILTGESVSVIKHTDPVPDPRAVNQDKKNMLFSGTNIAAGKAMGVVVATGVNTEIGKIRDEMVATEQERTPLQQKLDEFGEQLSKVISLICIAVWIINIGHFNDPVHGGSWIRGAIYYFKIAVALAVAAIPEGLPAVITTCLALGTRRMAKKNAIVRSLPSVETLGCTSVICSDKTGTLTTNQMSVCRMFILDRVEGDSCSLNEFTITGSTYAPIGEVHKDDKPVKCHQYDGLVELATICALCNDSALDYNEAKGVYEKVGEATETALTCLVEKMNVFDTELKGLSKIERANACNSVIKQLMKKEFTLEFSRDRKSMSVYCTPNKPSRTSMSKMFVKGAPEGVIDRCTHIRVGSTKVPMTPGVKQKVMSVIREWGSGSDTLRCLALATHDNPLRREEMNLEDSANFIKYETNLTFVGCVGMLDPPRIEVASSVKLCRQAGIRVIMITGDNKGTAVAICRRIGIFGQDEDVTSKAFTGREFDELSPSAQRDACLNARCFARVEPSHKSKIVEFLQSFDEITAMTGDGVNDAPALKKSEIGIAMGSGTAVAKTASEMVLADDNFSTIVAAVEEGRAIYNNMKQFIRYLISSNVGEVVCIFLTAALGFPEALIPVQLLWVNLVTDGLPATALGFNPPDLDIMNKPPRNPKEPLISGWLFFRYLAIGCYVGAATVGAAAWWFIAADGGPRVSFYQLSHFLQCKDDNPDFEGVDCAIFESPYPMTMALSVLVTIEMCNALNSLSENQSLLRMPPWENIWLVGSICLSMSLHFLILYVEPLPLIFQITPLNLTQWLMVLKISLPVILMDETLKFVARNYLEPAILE
Description: SERCA2a ATPase activity in heart-derived SR microsomes from normal dog. It is filed as biochemical. Particulars: for Vmax (SERCA2a ATPase activity): mean ± SD. Here is the method:
Left ventricle tissues were dissected, homogenized in 4 volumes of 10 mM NaHCO3, pH 7, 1 mM PMSF, 10 μg/ml Aprotinin and Leupeptin and centrifuged at 12,000 g for 15 minutes, as published (Nediani C. et al. J Biol Chem. 1996; 271:19066-73). Supernatants were filtered and centrifuged at 100,000 g for 30 min. Contractile proteins were extracted by suspending the pellets with 0.6 M KCl, 30 mM Histidine, pH 7 and further centrifugation at 100,000 g for 30 min. Final pellets were reconstituted with 0.3 M Sucrose, 30 mM Histidine, pH 7.
SERCA2a activity was measured “in vitro” as ^32P-ATP hydrolysis at different Ca^2+ concentrations (100-4000 nM) in the absence and presence of the tested compounds, as described (Micheletti R. et al. Am J Card 2007; 99:24A-32A). Increasing concentrations of each compound (from 1 to 100 nM) were pre-incubated with 2 μg of microsomes for 5 min at 4° C. in 80 μl of a solution containing 100 mM KCl, 5 mM MgCl2, 1 μM A23187, 20 mM Tris, pH 7.5. Then, 20 μl of 5 mM Tris-ATP containing 50 nCi of ^32P-ATP (3-10 Ci/mmol, Perkin Elmer) were added. The ATP hydrolysis was continued for 15 min at 37° C. and the reaction was stopped by acidification with 100 μl of 20% v/v ice-cold perchloric acid. ^32P was separated by centrifugation with activated charcoal (Norit A, SERVA) and the radioactivity was measured. SERCA2a-dependent activity was identified as the portion of total hydrolytic activity inhibited by 10 μM cyclopiazonic acid (Seidler N W. et al. J Biol Chem. 1989; 264:17816-23).
Dose-response curves were fitted by using a sigmoidal curve fitting software and the maximal velocity (Vmax) activity and the Kd Ca^2+ were calculated (Synergy Software KaleidaGraph 3.6).

The test system of data set [3] is guinea pig isolated cardiomyocytes. Briefly: SR Ca2+ uptake function (loading protocol) in isolated ventricular cardiomyocytes. The conditions noted are these: 100 nM. It is filed as cell-based. Here is the method:
The compounds were characterized for their effect on (i) SR Ca^2+ uptake function, (ii) action potential (AP) in myocytes freshly dissociated from guinea-pig ventricles by retrograde coronary perfusion with enzymatic solution (Rocchetti M et al. J Pharmacol Exper Therap 2005; 313(1):207-215).
Drug effects on SR Ca^2+ uptake rate were evaluated with an SR “loading protocol” specifically devised to rule out the contribution of the Na/Ca exchanger (NCX) and to assess the uptake rate starting at low levels of SR Ca^2+ loading. Under voltage-clamp conditions, intracellular Ca^2+ concentration was dynamically measured by epifluorescence (Fluo4-AM). Membrane current, whose time-dependent component mainly reflected ICaL, was simultaneously recorded. The SR loading protocol consisted in emptying the SR (by a brief caffeine pulse) and then progressively refilling it by voltage steps activating Ca^2+ influx through the sarcolemmal Ca^2+ channel (ICaL). NCX was blocked by omission of Na^+ from intracellular and extracellular solutions. The procedure is in agreement with published methods, with minor modifications (Rocchetti M et al. J Pharmacol Exper Therap 2005; 313(1):207-215).
Drug effects on SR Ca^2+ uptake were analysed by considering multiple parameters: 1) the rate at which Ca^2+ transient (CaT) amplitude increased during the loading protocol, which reflects the rate at which the SR refilled and 2) the time constant of cytosolic Ca^2+ decay (Tdecay) within each pulse, reflecting net Ca^2+ transport rate (by SERCA2a) across the SR membrane (a decrease in Tdecay corresponds to enhanced SR Ca^2+ uptake).

In data set [4] the test system is guinea pig. Description: Haemodynamics: inotropic and lethal dose in guinea pig. It is filed as in vivo. Particulars: i.v. infusion 0.3 mg/kg/min. Here is the method: Guinea-pigs (400-450 g) were anaesthetized with urethane (1.5 g/kg ip). A microtip pressure transducer was introduced into the left ventricle through the right carotid artery to measure ventricular pressure (LVP); the transducer was coupled with a transducer amplifier. Recordings were fed to a polygraph and analyzed. A polythene cannula was inserted into a jugular vein for drug infusion. After a stabilization period, the test substance was injected at the rate of 0.16 ml/min for 90 min (Micheletti R et al. J Pharmacol Exp Ther 2002; 303:592-600).
The following parameters were obtained: heart rate (HR), left ventricular pressure (LVP), maximal velocity of pressure rise (+dP/dtmax) and decay (−dP/dtmax), ECG. For inotropy, the time elapsed until +dP/dtmax increased by 80% was identified in order to determine the ED80 (dose increasing basal +dP/dtmax by 80%). The time to the maximum increase in +dP/dtmax was also identified to determine the maximum effective dose, EDmax. Lusitropy was characterized by the dose inducing the maximum decrease in −dP/dtmax, (EDmax). As indexes of toxicity, the dose administered until the onset of arrhythmias and the dose inducing death (LD) were calculated. The safety ratio for the tested compound was also calculated as the ratio between LD and ED80.

Setting [5] is: purified dog kidney enzyme, read-out: IC50, inhibition of dog renal Na,K-ATPase.

Where two headings read alike, the source gives them in different places. Marks after values point to notes of the source that are not given here.

In data set [1], `C[C@]12CC[C@H](O)C[C@H]1CCC1C2CC[C@]2(C)[C@@H](c3csc(N=C(N)N)n3)CC[C@]12O` (stereo partly drawn) [CVie 102, 3β-hydroxy-5β-10β-methyl-13β-methyl-14β-hydroxy-17β-(2-guanidino-thiazol-4-yl)androstane] gave an IC50 of 1700 nM. In addition, in data set [2] (compound 1 nM), the “% increase vs Control (SERCA2a Vmax)” value is recorded as 25%* and the “Vmax (SERCA2a ATPase activity)” value is on record as 2.949 ± 0.321 (n = 6) μmol/min/mg prot. Moreover, in data set [2] (compound 10 nM), the “% increase vs Control (SERCA2a Vmax)” value is 13%* and the “Vmax (SERCA2a ATPase activity)” value is on record as 2.660 ± 0.232 (n = 12) μmol/min/mg prot. In addition, the “rate of Ca2+ transient (CaT) increment during SR reloading” value in data set [3] (FIG. 1A, 1C) is on record as “increased”. Besides, the “time constant of cytosolic Ca2+ decay within each pulse (τdecay)” value in data set [3] (FIG. 1B, 1D) is reported as “reduced”. For the same compound, in data set [4], the Dead/treated number is listed as 11/11, the ED80 worked out at 3.8 mg/kg and the Lethal dose was found to be 12.57 mg/kg. Also, in data set [4] (90 min), the “E max % increase in dP/dtmax” value turned out to be 138.3%. In addition, in data set [4] (cumulative dose), the ED max stood at 8.6 mg/kg. For the same compound, in data set [4] (safety ratio), the LD/ED80 turned out to be 5.42.

In turn, `C[C@]12CC[C@H](O)C[C@H]1CCC1C2CC[C@]2(C)[C@@H](c3cc[nH]n3)CC[C@]12O` (stereo partly drawn) [CVie 103, 3β-hydroxy-5β-10β-methyl-13β-methyl-14β-hydroxy-17β-(pyrazol-3-yl)androstane] registered an IC50 in data set [1] of 4000 nM. In addition, the “% increase vs Control (SERCA2a Vmax)” value in data set [2] (compound 10 nM) stood at 11%*; in data set [2] (compound 100 nM), 16%*. The “Vmax (SERCA2a ATPase activity)” value in data set [2] (compound 10 nM) is reported as 2.569 ± 0.278 (n = 7) μmol/min/mg prot; in data set [2] (compound 100 nM), 2.688 ± 0.285 (n = 7) μmol/min/mg prot.

For the compound `C[C@]12[C@H](O)CC3C(CC[C@@H]4C[C@@H](O)CC[C@]34C)[C@@]1(O)CC[C@@H]2c1c[nH]cn1` (stereo partly drawn) [CVie 104, 3β-hydroxy-5β-10β-methyl-12β-hydroxy-13β-methyl-14β-hydroxy-17β-(imidazol-4-yl)androstane], in data set [1] (setting [5]), the IC50 was 1610 nM. Besides, in data set [2] (compound 1 nM), the “% increase vs Control (SERCA2a Vmax)” value is 11%* and the “Vmax (SERCA2a ATPase activity)” value was 1.437 ± 0.158 (n = 4) μmol/min/mg prot. Besides, in data set [2] (compound 10 nM), the “% increase vs Control (SERCA2a Vmax)” value worked out at 20%* and the “Vmax (SERCA2a ATPase activity)” value is recorded as 1.551 ± 0.275 (n = 4) μmol/min/mg prot.

`C[C@]12[C@H](O)CC3C(CC[C@@H]4C[C@@H](O)CC[C@]34C)[C@@]1(O)CC[C@@H]2c1csc(N=C(N)N)n1` (stereo partly drawn) [CVie 105, 3β-hydroxy-5β-10β-methyl-12β-hydroxy-13β-methyl-14β-hydroxy-17β-(2-guanidino-thiazol-4-yl)androstane]: in data set [1], half-maximal inhibition (IC50) required 530 nM.

Regarding `C[C@]12CC[C@H](O)C[C@H]1CCC1C2CC[C@]2(C)[C@@H](c3cn(CCCN)cn3)CC[C@]12O` (stereo partly drawn) [CVie 106, 3β-hydroxy-5β-10β-methyl-13β-methyl-14β-hydroxy-17β-(N-(3-aminopropyl)-imidazol-4-yl)androstane], in data set [1] (setting [5]), the IC50 was 10000 nM. In data set [2] (compound 1 nM), the “% increase vs Control (SERCA2a Vmax)” value was 22% * and the “Vmax (SERCA2a ATPase activity)” value is listed as 3.113 ± 0.157 (n = 3) μmol/min/mg prot. For the same compound, in data set [2] (compound 10 nM), the “% increase vs Control (SERCA2a Vmax)” value worked out at 15% and the “Vmax (SERCA2a ATPase activity)” value is reported as 2.935 ± 0.403 (n = 3) μmol/min/mg prot.

For `C[C@]12CC[C@H](O)C[C@H]1CCC1C2CC[C@]2(C)[C@@H](c3cc(CCCN)on3)CC[C@]12O` (stereo partly drawn) [CVie 107, 3β-hydroxy-5β-10β-methyl-13β-methyl-14β-hydroxy-17β-((5-(3-aminopropyl)-isoxazol-3-yl))androstane], in data set [1] (setting [5]), the IC50 was 150 nM. In addition, in data set [2] (compound 10 nM), the “% increase vs Control (SERCA2a Vmax)” value was 7% and the “Vmax (SERCA2a ATPase activity)” value is on record as 2.508 ± 0.339 (n = 3) μmol/min/mg prot. Also, in data set [2] (compound 100 nM), the “% increase vs Control (SERCA2a Vmax)” value came to 17%* and the “Vmax (SERCA2a ATPase activity)” value was 2.751 ± 0.171 (n = 3) μmol/min/mg prot.

Regarding `C[C@]12CC[C@H](O)C[C@H]1CCC1C2CC[C@]2(C)[C@@H](CCc3cc(CCCN)on3)CC[C@]12O` (stereo partly drawn) [CVie 108, 3β-hydroxy-5β-10β-methyl-13β-methyl-14β-hydroxy-17β-((5-(3-aminopropyl)-isoxazol-3-yl)-ethyl)androstane], the IC50 in data set [1] (setting [5]) amounted to 3300 nM. Moreover, the “% increase vs Control (SERCA2a Vmax)” value in data set [2] (compound 1 nM) was 15%; in data set [2] (compound 10 nM), 16%*. The figures for the “Vmax (SERCA2a ATPase activity)” value in data set [2] (compound 1 nM) and in data set [2] (compound 10 nM) were 2.94 ± 0.306 (n = 3) μmol/min/mg prot and 2.980 ± 0.441 (n = 4) μmol/min/mg prot, respectively.

Take `C[C@]12CC[C@H](O)C[C@H]1CCC1C2CC[C@]2(C)[C@@H](CCc3cc(CCN)on3)CC[C@]12O` (some centres unmarked) [CVie 109]: in data set [1] (setting [5]), the IC50 stood at 1000 nM. In data set [2] (compound 10 nM), the “% increase vs Control (SERCA2a Vmax)” value is listed as 14% and the “Vmax (SERCA2a ATPase activity)” value is on record as 2.859 ± 0.504 (n = 4) μmol/min/mg prot. In addition, in data set [2] (compound 100 nM), the “% increase vs Control (SERCA2a Vmax)” value is given as 15%* and the “Vmax (SERCA2a ATPase activity)” value was 2.889 ± 0.305 (n = 4) μmol/min/mg prot.

`C[C@]12CC[C@H](O)C[C@H]1CCC1C2CC[C@]2(C)[C@@H](/C=C/c3cc(CN)on3)CC[C@]12O` (some centres unmarked) [CVie 110] yielded an IC50 in data set [1] of 330 nM. Moreover, in data set [2] (compound 1 nM), the “% increase vs Control (SERCA2a Vmax)” value is recorded as 19% and the “Vmax (SERCA2a ATPase activity)” value is recorded as 2.924 ± 0.549 (n = 3) μmol/min/mg prot. In addition, in data set [2] (compound 10 nM), the “% increase vs Control (SERCA2a Vmax)” value is 18%* and the “Vmax (SERCA2a ATPase activity)” value is 2.903 ± 0.188 (n = 3) μmol/min/mg prot.

`C[C@]12CC[C@H](O)C[C@H]1CC[C@@H]1[C@@H]2C[C@@H](O)[C@]2(C)[C@@H](C3=CC(=O)OC3)CC[C@]12O` [DIGOXIGENIN, Digoxigenin, reference compound] yielded an IC50 in data set [1] of 230 nM.

One may read the IC50 as the midpoint of a concentration-inhibition curve.
